According to the supplement of paper PMC13207355:

Tests used:
Conditions in all cases: exposure time: 72 h
E13 [1] = patient-derived glioblastoma stem cells of classical subtype; assay: surviving fraction (nuclei count normalised to DMSO); higher = more cells surviving (less toxic)
E21 [2] = patient-derived glioblastoma stem cells of mesenchymal subtype; assay: as above
E28 [3] = patient-derived glioblastoma stem cells of classical subtype; assay: as above
E31 [4] = patient-derived glioblastoma stem cells of proneural subtype; assay: as above
E34 [5] = patient-derived glioblastoma stem cells of proneural subtype; assay: as above
E57 [6] = patient-derived glioblastoma stem cells of mesenchymal subtype; assay: as above
FT3469 [7] = normal neural stem cell line; assay: as above
E13 [8] = assay: phenotypic distance (Euclidean, principal components) from DMSO controls (arbitrary units); higher = stronger morphological change
E21 [9] = assay: as above
E28 [10] = assay: as above
E31 [11] = assay: as above
E34 [12] = assay: as above
E57 [13] = assay: as above
FT3469 [14] = assay: as above
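For phenotypic distance (Euclidean, principal components) from DMSO controls in this document: cell Painting imaging in 384-well plates, CellProfiler features reduced to at least 20 principal components, Euclidean distance versus same-plate DMSO vehicle wells (0.1% v/v), median over six images per well.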
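For surviving fraction (nuclei count normalised to DMSO) in this document: nuclei counted by high-content imaging of Hoechst-stained cells in laminin-coated 384-well plates, relative to 0.1% DMSO vehicle wells, with staurosporine as cell-death control.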

CC(C)CC(=O)N[C@H](C(=O)N[C@H](C(=O)N[C@@H](CC(C)C)[C@@H](O)CC(=O)N[C@@H](C)C(=O)N[C@@H](CC(C)C)[C@@H](O)CC(=O)O)C(C)C)C(C)C [Pepstatin A]
Conditions	phenotypic distance	surviving fraction
E13 [1], 4.1 nM	–	1.06
E13 [1], 12.3 nM	–	1.08
E13 [1], 37 nM	–	0.987
E13 [1], 111.1 nM	–	0.969
E13 [1], 333.3 nM	–	0.939
E13 [1], 1000 nM	–	1.07
E13 [1], 3000 nM	–	0.973
E13 [8], 4.1 nM	3.07	–
E13 [8], 12.3 nM	0.418	–
E13 [8], 37 nM	0.54	–
E13 [8], 111.1 nM	2.55	–
E13 [8], 333.3 nM	0.565	–
E13 [8], 1000 nM	1.06	–
E13 [8], 3000 nM	1.04	–
E21 [2], 4.1 nM	–	1.08
E21 [2], 12.3 nM	–	1.07
E21 [2], 37 nM	–	1.01
E21 [2], 111.1 nM	–	1.05
E21 [2], 333.3 nM	–	0.985
E21 [2], 1000 nM	–	0.986
E21 [2], 3000 nM	–	0.943
E21 [9], 4.1 nM	0.741	–
E21 [9], 12.3 nM	0.806	–
E21 [9], 37 nM	0.616	–
E21 [9], 111.1 nM	0.484	–
E21 [9], 333.3 nM	0.724	–
E21 [9], 1000 nM	0.99	–
E21 [9], 3000 nM	0.905	–
E28 [3], 4.1 nM	–	0.953
E28 [3], 12.3 nM	–	1.07
E28 [3], 37 nM	–	1.14
E28 [3], 111.1 nM	–	1.15
E28 [3], 333.3 nM	–	1.06
E28 [3], 1000 nM	–	0.989
E28 [3], 3000 nM	–	0.92
E28 [10], 4.1 nM	0.473	–
E28 [10], 12.3 nM	0.719	–
E28 [10], 37 nM	0.825	–
E28 [10], 111.1 nM	1.73	–
E28 [10], 333.3 nM	0.834	–
E28 [10], 1000 nM	1.64	–
E28 [10], 3000 nM	0.785	–
E31 [4], 4.1 nM	–	0.988
E31 [4], 12.3 nM	–	1.1
E31 [4], 37 nM	–	1
E31 [4], 111.1 nM	–	0.89
E31 [4], 333.3 nM	–	0.936
E31 [4], 1000 nM	–	0.912
E31 [4], 3000 nM	–	0.801
E31 [11], 4.1 nM	0.911	–
E31 [11], 12.3 nM	0.626	–
E31 [11], 37 nM	0.894	–
E31 [11], 111.1 nM	0.552	–
E31 [11], 333.3 nM	0.816	–
E31 [11], 1000 nM	0.799	–
E31 [11], 3000 nM	0.946	–
E34 [5], 4.1 nM	–	1.05
E34 [5], 12.3 nM	–	1.18
E34 [5], 37 nM	–	0.988
E34 [5], 111.1 nM	–	1.19
E34 [5], 333.3 nM	–	0.959
E34 [5], 1000 nM	–	1.03
E34 [5], 3000 nM	–	0.906
E34 [12], 4.1 nM	0.998	–
E34 [12], 12.3 nM	1.15	–
E34 [12], 37 nM	0.793	–
E34 [12], 111.1 nM	1.47	–
E34 [12], 333.3 nM	1.37	–
E34 [12], 1000 nM	1.44	–
E34 [12], 3000 nM	0.964	–
E57 [6], 4.1 nM	–	1.04
E57 [6], 12.3 nM	–	1.08
E57 [6], 37 nM	–	1.01
E57 [6], 111.1 nM	–	1.02
E57 [6], 333.3 nM	–	1.11
E57 [6], 1000 nM	–	0.978
E57 [6], 3000 nM	–	0.901
E57 [13], 4.1 nM	0.859	–
E57 [13], 12.3 nM	0.774	–
E57 [13], 37 nM	0.554	–
E57 [13], 111.1 nM	0.499	–
E57 [13], 333.3 nM	1.2	–
E57 [13], 1000 nM	1.56	–
E57 [13], 3000 nM	1.57	–
FT3469 [7], 4.1 nM	–	0.981
FT3469 [7], 12.3 nM	–	1.14
FT3469 [7], 37 nM	–	1.08
FT3469 [7], 111.1 nM	–	1.05
FT3469 [7], 333.3 nM	–	1.07
FT3469 [7], 1000 nM	–	0.993
FT3469 [7], 3000 nM	–	1.07
FT3469 [14], 4.1 nM	0.569	–
FT3469 [14], 12.3 nM	0.775	–
FT3469 [14], 37 nM	0.359	–
FT3469 [14], 111.1 nM	0.585	–
FT3469 [14], 333.3 nM	0.718	–
FT3469 [14], 1000 nM	1.15	–
FT3469 [14], 3000 nM	0.856	–

CN(c1nccc(=O)[nH]1)C1CCN(c2nc3ccccc3n2Cc2ccc(F)cc2)CC1 [Mizolastine]
Conditions	phenotypic distance	surviving fraction
E13 [1], 4.1 nM	–	0.797
E13 [1], 12.3 nM	–	0.967
E13 [1], 37 nM	–	0.849
E13 [1], 111.1 nM	–	0.869
E13 [1], 333.3 nM	–	0.989
E13 [1], 1000 nM	–	0.896
E13 [1], 3000 nM	–	0.956
E13 [8], 4.1 nM	0.868	–
E13 [8], 12.3 nM	0.459	–
E13 [8], 37 nM	0.939	–
E13 [8], 111.1 nM	0.783	–
E13 [8], 333.3 nM	0.597	–
E13 [8], 1000 nM	0.555	–
E13 [8], 3000 nM	0.59	–
E21 [2], 4.1 nM	–	1
E21 [2], 12.3 nM	–	1
E21 [2], 37 nM	–	0.949
E21 [2], 111.1 nM	–	1.03
E21 [2], 333.3 nM	–	1.03
E21 [2], 1000 nM	–	1.01
E21 [2], 3000 nM	–	1.09
E21 [9], 4.1 nM	0.704	–
E21 [9], 12.3 nM	0.468	–
E21 [9], 37 nM	0.444	–
E21 [9], 111.1 nM	0.765	–
E21 [9], 333.3 nM	0.434	–
E21 [9], 1000 nM	0.621	–
E21 [9], 3000 nM	0.543	–
E28 [3], 4.1 nM	–	1.08
E28 [3], 12.3 nM	–	1.1
E28 [3], 37 nM	–	1.1
E28 [3], 111.1 nM	–	1.19
E28 [3], 333.3 nM	–	1.06
E28 [3], 1000 nM	–	1.13
E28 [3], 3000 nM	–	0.972
E28 [10], 4.1 nM	0.853	–
E28 [10], 12.3 nM	5.48	–
E28 [10], 37 nM	0.52	–
E28 [10], 111.1 nM	0.84	–
E28 [10], 333.3 nM	0.698	–
E28 [10], 1000 nM	0.693	–
E28 [10], 3000 nM	0.97	–
E31 [4], 4.1 nM	–	1.01
E31 [4], 12.3 nM	–	1.16
E31 [4], 37 nM	–	0.825
E31 [4], 111.1 nM	–	1.19
E31 [4], 333.3 nM	–	0.944
E31 [4], 1000 nM	–	1.18
E31 [4], 3000 nM	–	0.875
E31 [11], 4.1 nM	0.567	–
E31 [11], 12.3 nM	0.802	–
E31 [11], 37 nM	1.44	–
E31 [11], 111.1 nM	0.455	–
E31 [11], 333.3 nM	0.814	–
E31 [11], 1000 nM	0.555	–
E31 [11], 3000 nM	0.652	–
E34 [5], 4.1 nM	–	1.16
E34 [5], 12.3 nM	–	0.983
E34 [5], 37 nM	–	1.01
E34 [5], 111.1 nM	–	0.939
E34 [5], 333.3 nM	–	1.04
E34 [5], 1000 nM	–	1.1
E34 [5], 3000 nM	–	0.941
E34 [12], 4.1 nM	0.476	–
E34 [12], 12.3 nM	1.2	–
E34 [12], 37 nM	1.86	–
E34 [12], 111.1 nM	0.66	–
E34 [12], 333.3 nM	0.677	–
E34 [12], 1000 nM	0.599	–
E34 [12], 3000 nM	0.698	–
E57 [6], 4.1 nM	–	0.99
E57 [6], 12.3 nM	–	1.02
E57 [6], 37 nM	–	1.06
E57 [6], 111.1 nM	–	0.976
E57 [6], 333.3 nM	–	1.05
E57 [6], 1000 nM	–	1.05
E57 [6], 3000 nM	–	1.06
E57 [13], 4.1 nM	0.544	–
E57 [13], 12.3 nM	0.715	–
E57 [13], 37 nM	3.66	–
E57 [13], 111.1 nM	0.766	–
E57 [13], 333.3 nM	0.54	–
E57 [13], 1000 nM	0.624	–
E57 [13], 3000 nM	0.531	–
FT3469 [7], 4.1 nM	–	1.15
FT3469 [7], 12.3 nM	–	0.975
FT3469 [7], 37 nM	–	0.987
FT3469 [7], 111.1 nM	–	1.06
FT3469 [7], 333.3 nM	–	1.03
FT3469 [7], 1000 nM	–	0.94
FT3469 [7], 3000 nM	–	1.15
FT3469 [14], 4.1 nM	0.538	–
FT3469 [14], 12.3 nM	1.14	–
FT3469 [14], 37 nM	0.386	–
FT3469 [14], 111.1 nM	0.797	–
FT3469 [14], 333.3 nM	0.453	–
FT3469 [14], 1000 nM	0.544	–
FT3469 [14], 3000 nM	0.613	–
